Patent publication US12662491B2 (Redona Therapeutics, Inc., priority 2020, dated 2026)

target: T1, Zcchc11 enzyme (Homo sapiens, UniProt Q5TAX3); experiment: TUTase assay (Zcchc11 assay, Lin28a-dependent polyuridylation of pre-let-7); type: biochemical; conditions: Lin28a-dependent Zcchc11 (Z11) TUTase activity; read-out: Potency Lin28a-dep Z11 IC50
T1 construct: made in house; host or cells: HEK293 cells (Zcchc11); E. coli Rosetta II (LIN28A)
T1 sequence (Q5TAX3 212-1420): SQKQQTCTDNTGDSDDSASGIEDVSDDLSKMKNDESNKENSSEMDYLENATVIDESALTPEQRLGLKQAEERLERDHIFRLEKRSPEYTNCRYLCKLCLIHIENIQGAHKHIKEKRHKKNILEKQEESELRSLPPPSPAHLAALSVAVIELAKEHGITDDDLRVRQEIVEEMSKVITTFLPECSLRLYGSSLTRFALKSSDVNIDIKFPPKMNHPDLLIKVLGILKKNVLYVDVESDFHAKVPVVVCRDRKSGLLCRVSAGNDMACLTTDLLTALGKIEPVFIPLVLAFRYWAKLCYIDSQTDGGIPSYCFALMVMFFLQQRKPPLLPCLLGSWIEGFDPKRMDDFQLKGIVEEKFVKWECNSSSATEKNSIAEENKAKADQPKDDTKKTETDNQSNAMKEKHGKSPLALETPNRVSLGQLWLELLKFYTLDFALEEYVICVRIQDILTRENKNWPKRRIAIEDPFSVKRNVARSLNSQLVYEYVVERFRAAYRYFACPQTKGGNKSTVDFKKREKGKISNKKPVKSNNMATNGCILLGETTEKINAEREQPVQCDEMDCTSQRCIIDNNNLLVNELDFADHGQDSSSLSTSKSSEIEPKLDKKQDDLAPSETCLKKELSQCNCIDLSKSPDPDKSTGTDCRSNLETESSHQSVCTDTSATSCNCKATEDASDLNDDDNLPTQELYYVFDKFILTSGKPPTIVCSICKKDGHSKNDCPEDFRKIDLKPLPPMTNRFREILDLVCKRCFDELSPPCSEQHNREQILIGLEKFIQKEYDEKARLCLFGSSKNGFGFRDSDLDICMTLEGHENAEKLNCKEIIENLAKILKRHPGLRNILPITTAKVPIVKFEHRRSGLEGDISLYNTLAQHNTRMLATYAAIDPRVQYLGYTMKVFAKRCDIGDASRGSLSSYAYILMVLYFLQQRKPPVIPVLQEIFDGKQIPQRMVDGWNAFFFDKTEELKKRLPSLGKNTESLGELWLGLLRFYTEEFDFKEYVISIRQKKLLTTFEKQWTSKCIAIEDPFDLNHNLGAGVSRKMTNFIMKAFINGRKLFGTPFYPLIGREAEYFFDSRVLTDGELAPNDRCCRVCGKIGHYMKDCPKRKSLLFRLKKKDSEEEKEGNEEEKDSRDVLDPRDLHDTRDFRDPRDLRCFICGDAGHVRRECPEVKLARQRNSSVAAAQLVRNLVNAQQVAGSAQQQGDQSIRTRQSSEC
In short: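 Readout: time-dependent quench of 5′-fluorescein pre-let-7 (2 nM) as 3′-rhodamine A20 probe anneals to poly(U) tails. Enzyme 0.2 nM Zcchc11 (res. 212-1420), LIN28A 10 nM, UTP 5 uM; pH 7.3 HEPES, 150 mM KCl, 5 mM MgCl2, RT. 4-parameter IC50; 100% = DMSO, 0% = no UTP.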

IC50	SMILES
≤ 1000 nM	O=C(O)c1cn(-c2cnc(OCCO)cn2)c2cc(N3CCC[C@@H]3COc3ncccc3Cl)c(Cl)cc2c1=O [Compound 238, 6-chloro-7-[(2R)-2-[[(3-chloropyridin-2-yl)oxy]methyl]pyrrolidin-1-yl]-1-[5-(2-hydroxy-ethoxy)pyrazin-2-yl]-4-oxoquinoline-3-carboxylic acid]
≤ 1000 nM	O=C(O)c1cn(-c2ccc3c(c2F)CCN3)c2cc(N3CCC[C@@H]3COc3ccccn3)c(F)cc2c1=O [Compound 216, 6-Fluoro-1-(4-fluoro-2,3-dihydro-1H-indol-5-yl)-4-oxo-7-[(2R)-2-[(pyridin-2-yloxy)methyl]pyrrolidin-1-yl]quinoline-3-carboxylic acid]
≤ 1000 nM	O=C(O)c1cn(-c2ccc(O)cc2)c2cc(N3CCC[C@@H]3COc3cc4cc[nH]c4cn3)c(F)cc2c1=O [Compound 118, (R)-7-(2-(((1H-pyrrolo[2,3-c]pyridin-5-yl)oxy)methyl)pyrrolidin-1-yl)-6-fluoro-1-(4-hydroxy-phenyl)-4-oxo-1,4-dihydro-quinoline-3-carboxylic acid]
≤ 1000 nM	COc1ccc(Cl)c(OCC2N(c3cc4c(cc3Cl)c(=O)c(C(=O)O)cn4-c3cc(N)cnn3)CCC2(C)C)n1 (centres unmarked) [Compound 229, 1-(5-Amino-pyridazin-3-yl)-6-chloro-7-(2-(((3-chloro-6-methoxy-pyridin-2-yl)oxy)methyl)-3,3-dimethyl-pyrrolidin-1-yl)-4-oxo-1,4-dihydro-quinoline-3-carboxylic acid]
10000 to 50000 nM	O=C(O)c1cn(-c2ccccc2)c2c(F)c(N3CCC[C@H]3COc3ccccn3)c(F)cc2c1=O [a, (S)-6,8-difluoro-4-oxo-1-phenyl-7-(2-((pyridin-2-yloxy)methyl)pyrrolidin-1-yl)-1,4-dihydro-quinoline-3-carboxylic acid]
≤ 1000 nM	COc1ccnc(OC[C@H]2C[C@H]3C[C@H]3N2c2cc3c(cc2F)c(=O)c(C(=O)O)cn3-c2ccc(N(C)C)nc2)c1F [Compound 197, 1-(6-(dimethyl-amino)pyridin-3-yl)-6-fluoro-7-((1R,3R,5R)-3-(((3-fluoro-4-methoxy-pyridin-2-yl)oxy)methyl)-2-azabicyclo [3.1.0]hexan-2-yl)-4-oxo-1,4-dihydro-quinoline-3-carboxylic acid]
≤ 1000 nM	COCCN(C)C1CN(c2ccc(-n3cc(C(=O)O)c(=O)c4cc(C#N)c(N5CCC[C@@H]5COc5ncccc5Cl)cc43)cn2)C1 [Compound 218, 7-[(2R)-2-[[(3-chloropyridin-2-yl)oxy]methyl]pyrrolidin-1-yl]-6-cyano-1-(6-[3-[(2-methoxyethyl) (methyl)amino]azetidin-1-yl]pyridin-3-yl)-4-oxoquinoline-3-carboxylic acid]
≤ 1000 nM	NCCOc1cccnc1OC[C@H]1CCCN1c1cc2c(cc1Cl)c(=O)c(C(=O)O)cn2-c1ccc(Br)nc1 (racemic) [Compound 313, rac-(R)-7-(2-(((3-(2-aminoethoxy)pyridin-2-yl)oxy)methyl)pyrrolidin-1-yl)-1-(6-bromopyridin-3-yl)-6-chloro-4-oxo-1,4-dihydro-quinoline-3-carboxylic acid]

same assay, conditions: Lin28a-dependent Zcchc11 (Z11) TUTase assay; read-out: Potency Lin28a-dep Z11 IC50

SMILES	IC50
CC(=O)Nc1ccc(-n2cc(C(=O)O)c(=O)c3cc(Cl)c(N4CCC[C@@H]4COc4ncccc4Cl)cc32)cn1 [Example 426, (R)-1-(6-acetamidopyridin-3-yl)-6-chloro-7-(2-(((3-chloro-pyridin-2-yl)oxy)methyl)pyrrolidin-1-yl)-4-oxo-1,4-dihydroquinoline-3-carboxylic acid]	≤ 1000 nM
O=C(O)c1cn(-c2ccnnc2)c2cc(N3CCC[C@@H]3COc3ncccc3Cl)c(Cl)cc2c1=O [Example 504, 6-chloro-7-[(2R)-2-{[(3-chloropyridin-2-yl)oxy]methyl}pyrrolidin-1-yl]-4-oxo-1-(pyridazin-4-yl)-1,4-dihydroquinoline-3-carboxylic acid]	≤ 1000 nM
CN(C)CCNc1cnc(-n2cc(C(=O)O)c(=O)c3cc(Cl)c(N4CCC[C@@H]4COc4ncccc4Cl)cc32)cn1 [Example 492, (R)-6-chloro-7-(2-(((3-chloropyridin-2-yl)oxy)methyl)pyrrolidin-1-yl)-1-(5-((2-(dimethylamino)ethyl)amino)pyrazin-2-yl)-4-oxo-1,4-dihydroquinoline-3-carboxylic acid]	≤ 1000 nM
CCc1ccccc1-n1cc(C(=O)O)c(=O)c2cc(F)c(N3CCC[C@@H]3COc3ccccn3)cc21 [Example 404, (R)-1-(2-ethylphenyl)-6-fluoro-4-oxo-7-(2-((pyridin-2-yloxy)methyl)pyrrolidin-1-yl)-1,4-dihydroquinoline-3-carboxylic acid]	1000 to 10000 nM
CN(C)C1CN(c2ccc(-n3cc(C(=O)O)c(=O)c4cc(Cl)c(N5CCC[C@H]5COc5ncccc5Cl)cc43)cn2)C1 [Example 517, (S)-6-chloro-7-(2-(((3-chloropyridin-2-yl)oxy)methyl)pyrrolidin-1-yl)-1-(6-(3-(dimethylamino)azetidin-1-yl)pyridin-3-yl)-4-oxo-1,4-dihydroquinoline-3-carboxylic acid]	≤ 1000 nM
O=C(O)c1cn(-c2ccc(CO)cc2)c2cc(N3CCC[C@@H]3COc3ccccn3)c(F)cc2c1=O [Example 372, (R)-6-fluoro-1-(4-(hydroxymethyl)phenyl)-4-oxo-7-(2-((pyridin-2-yloxy)methyl)pyrrolidin-1-yl)-1,4-dihydroquinoline-3-carboxylic acid]	≤ 1000 nM
O=C(O)c1cn(-c2ccc(O)cc2C(F)(F)F)c2cc(N3CCC[C@@H]3COc3ccccn3)c(F)cc2c1=O [Example 383, (R)-6-fluoro-1-(4-hydroxy-2-(trifluoromethyl)phenyl)-4-oxo-7-(2-((pyridin-2-yloxy)methyl)pyrrolidin-1-yl)-1,4-dihydroquinoline-3-carboxylic acid]	10000 to 50000 nM

Further lines, results first:

IC50	SMILES
≤ 1000 nM	COc1ccnc(OC[C@H]2C[C@H]3C[C@H]3N2c2cc3c(cc2Cl)c(=O)c(C(=O)O)cn3-c2ccc(N3CC(N(C)C)C3)nc2)c1C [Example 683, 6-chloro-1-(6-(3-(dimethylamino)azetidin-1-yl)pyridin-3-yl)-7-((1R,3R,5R)-3-(((4-methoxy-3-methylpyridin-2-yl)oxy)methyl)-2-azabicyclo[3.1.0]hexan-2-yl)-4-oxo-1,4-dihydroquinoline-3-carboxylic acid]
≤ 1000 nM	COCCN(C)C1CN(c2ccc(-n3cc(C(=O)O)c(=O)c4cc(Cl)c(N5CCC[C@@H]5COc5nc(N(C)C)ccc5Cl)cc43)cn2)C1 [Example 657, (R)-6-chloro-7-(2-(((3-chloro-6-(dimethylamino)pyridin-2-yl)oxy)methyl)pyrrolidin-1-yl)-1-(6-(3-((2-methoxyethyl) (methyl)amino)azetidin-1-yl)pyridin-3-yl)-4-oxo-1,4-dihydroquinoline-3-carboxylic acid]
≤ 1000 nM	N#Cc1cc2c(=O)c(C(=O)O)cn(C3CCn4ccnc4C3)c2cc1N1CCC[C@@H]1COc1ncccc1Cl (stereo partly drawn) [Example 540, 7-((R)-2-(((3-chloropyridin-2-yl)oxy)methyl)pyrrolidin-1-yl)-6-cyano-4-oxo-1-(5,6,7,8-tetrahydroimidazo [1,2-a]pyridin-7-yl)-1,4-dihydroquinoline-3-carboxylic acid]
≤ 1000 nM	O=C(O)c1cn(-c2ccc(N3CCCC3=O)nc2)c2nc(N3CCC[C@@H]3COc3ncccc3Cl)c(Cl)cc2c1=O [Example 525, (R)-6-chloro-7-(2-(((3-chloropyridin-2-yl)oxy)methyl)pyrrolidin-1-yl)-4-oxo-1-(6-(2-oxopyrrolidin-1-yl)pyridin-3-yl)-1,4-dihydro-1,8-naphthyridine-3-carboxylic acid]
1000 to 10000 nM	CN(C)C1CN(c2ccc(-n3cc(C(=O)O)c(=O)c4cc(F)c(N5CCC[C@H]5COc5ncccc5Cl)cc43)cn2)C1 [Example 670, (S)-7-(2-(((3-chloropyridin-2-yl)oxy)methyl)pyrrolidin-1-yl)-1-(6-(3-(dimethylamino)azetidin-1-yl)pyridin-3-yl)-6-fluoro-4-oxo-1,4-dihydroquinoline-3-carboxylic acid]
